According to patent publication US20250186396A1, “COMPOSITIONS AND METHODS FOR THE TREATMENT OF GLIOBLASTOMA WITH A DUAL TARGETING ANTI-TUMOR COMPOSITION” (Northwestern University, priority 2023, published 2025):

Experiments:
CT2A tumors [1] = test: Immunofluorescence staining of CT2A tumors; format: in vivo, C57BL/6 mice; conditions: for intratumoral CD4+ T cells / intratumoral CD8+ T cells / intratumoral activated CD8+ (CD8+CD69+) T cells: CT2A model, BAPN 2 g/L in drinking water from day 4, SR9009 100 mg/kg i.p. daily for 10 days from day 7; for CX3CR1+ microglia in tumors / F4/80+ macrophages in tumors: CT2A tumors vs control, BAPN 2 g/L drinking water or SR9009 100 mg/kg i.p. daily 10 days
Description: (§1) Mice and Intracranial Xenograft Tumor Models. Female C57BL/6 mice at 3 to 4 weeks of age were purchased from the Jackson Laboratory (#0000664). All animals were grouped by 5 mice per cage and maintained in IVC System (San Diego, CA) for a week before the experiment. All animal experiments were performed with the approval of the Institutional Animal Care and Use Committee (IACUC) at Northwestern University. The intracranial xenograft tumor models were established previously. In brief, mice were anesthetized by isoflurane through IMPAC6 Anesthesia System. Then a dental drill was used to open a small hole in the skull of mice 1.2 mm anterior and 3.0 mm lateral to the bregma. Mice were placed into the stereotactic apparatus, and 5 μL 005 GSC, CT2A, or GL261 cells in FBS-free culture medium were injected into the right caudate nucleus 3 mm below the surface of the brain using a 10 μL Hamilton syringe with an unbeveled 30-gauge needle. The incision was closed using Vetbond glue. Meloxicam (20 mg/kg, daily) was subcutaneously injected for pain relief for 3 days after surgery. Mice received the treatment with BAPN (2 g/L in drinking water) on day 4, SR9009 (100 mg/kg body weight, i.p.) daily for 10 days beginning at day 7 post-orthotopic injection, anti-PD1 (10 mg/kg body weight, i.p.) on days 11, 14, and 17 post-orthotopic injection, and/or clodronate liposomes (200 μL, once every 3 days) starting at day 4 post-orthotopic injection. Mice with neurological deficits or moribund appearance were sacrificed according to the IACUC protocol. At the end of the experiment, the brains of mice were collected, either fixed in 4% paraformaldehyde (PFA) (ThermoFisher Scientific, #J61899.AK) after transcardiac perfusion with PBS for optimal cutting temperature (OCT)-cryosectioning or processed using the percoll density gradient cell separation method to isolate tumor-derived immune cells for flow cytometry analysis.
Immunofluorescence. Immunofluorescence was performed using a standard protocol that was previously established. In brief, slides from cryosections were kept at room temperature for 30 minutes and fixed in 10% PFA for 30 minutes prior to permeabilization. Then, 0.25% Triton X-100 in PBS was added for 30 minutes at room temperature to permeabilize the cell membrane. After three times PBS washing, sections were blocked by 5% goat serum for 30 minutes. Specimens were incubated with primary antibody for 1 hour at room temperature and then overnight at 4° C. Then, the unbound primary antibodies were washed out by three times PBS for 3 minutes each and corresponding secondary antibody cocktails were prepared and added to the sections for 1 hour incubation. Cell nuclear was counterstained with DAPI/anti-fade mounting medium (Vector Laboratories, #H-1200-10). Immunofluorescence images were captured using Nikon AX/AX R Confocal Microscope System with an apo 60 1.40 Oil 160/0.17 objective in the Center for Advanced Microscopy (CAM) at Northwestern University. The relative intensity of the protein signal was determined by Image J. For one slide, 3-5 fields of images were captured randomly, and the intensity of the protein signal was determined by Image J. The average quantified value of these 3-5 fields was represented as the protein signal intensity of one sample and presented as the individual point in the bar graph. Antibodies specific to CD8 (Invitrogen, #PA5-81344), CD69 (Santa Cruz Biotechnology, #sc-373799), CX3CR1 (Invitrogen, #702321), F4/80 (Cell Signaling Technology, #30325S), OLFML3 (Invitrogen, #702321), Ki67 (Cell Signaling Technology, #9129S), and CC3 (Cell Signaling Technology, #9661S) were used.

CT2A tumors [2] = test: Flow cytometry of tumor-derived immune cells, CT2A tumors; format: in vivo, C57BL/6 mice; conditions: for CD45+CD3+CD8+CD69+ activated T cells / CD45+CD3+CD8+IFN-γ+ activated T cells: CT2A tumors
Description: as §1
Tumor-derived immune cells isolation. Mice with neurologic deficits or moribund appearance were sacrificed to harvest their brains. Immune cells in the brain tumors were isolated using the percoll density gradient cell separation method as previously described. In brief, after perfusion with PBS, brains were homogenized on ice with pre-cold 10 mL HBSS. Then cells were spun down at 1,500 rpm for 10 minutes at 4° C., and were resuspended in 30% Percoll (GE Healthcare, #17-0891-01). The solution was gently laid on top of the 70% Percoll and centrifuged at 1,200 g for 30 minutes at 4° C. with accelerator 7 and breaker 0. After removing myelin and debris, the interphase was collected and centrifuged at 1,500 rpm for 10 minutes at 4° C. The cell pellet was resuspended for further analysis.
Flow cytometry. The single-cell suspensions were incubated with fixable viability dye (Invitrogen, #5211229035) on ice for 10 minutes. After washing with FACS buffer, cells were incubated with the TruStain FcX (anti-mouse CD16/32) Antibody (BioLegend, #103132) and True-Stain Monocyte Blocker (BioLegend, #426102) in 5% BSA for 30 minutes on ice to block Fc receptors and non-specific binding of the cyanine acceptor fluorophores. Different antibody cocktails, including Percp/Cy5.5 anti-mouse CD45 (BioLegend, […]), AF488 anti-mouse CD3 (BioLegend, #100210), BV711 anti-mouse CD8 (BioLegend, #100747), PE/Cy7 anti-mouse CD69 (BioLegend, #104512), APC/Cy7 anti-mouse IFN-γ (BioLegend, #505850), PE/Cy7 anti-mouse/human CD11b (BioLegend, #101216), PE anti-mouse CD68 (BD Bioscience, #566386), and BV421 anti-mouse CX3CR1 (BD Bioscience, #567531) were added to the samples and incubated for 30 minutes on ice. After washing with FACS buffer, cells were incubated with fixation buffer (BioLegend, #420801) overnight. Samples were read through the BD FACSymphony or BD LSRFortessa flow cytometer and analyzed in FlowJo v10.8.1.

[3] = size matched CT2A tumors, BAPN 2 g/L in drinking water

| SMILES | intratumoral CD4+ T cells (CT2A tumors [1]) | intratumoral CD8+ T cells (CT2A tumors [1]) | intratumoral activated CD8+ (CD8+CD69+) T cells (CT2A tumors [1]) | CX3CR1+ microglia in tumors (CT2A tumors [1]) | F4/80+ macrophages in tumors (CT2A tumors [1]) | CD45+CD3+CD8+CD69+ activated T cells (CT2A tumors [2]) | CD45+CD3+CD8+IFN-γ+ activated T cells (CT2A tumors [2]) | CD45highCD11b+CD68+ macrophages (CT2A tumors [2]; [3]) | CD45lowCD11b+CX3CR1+ microglia (CT2A tumors [2]; [3]) |
| --- | --- | --- | --- | --- | --- | --- | --- | --- | --- |
| CCOC(=O)N1CCC(CN(Cc2ccc(Cl)cc2)Cc2ccc([N+](=O)[O-])s2)C1 (stereo not shown) [SR9009] | increased | increased | increased | reduced | did not affect | Increases | Increases |  |  |
| N#CCCN [BAPN, β-aminopropionitrile] | increased | increased | increased | higher | lower | Increases | Increases | decreased | increased |
